Data as given in patent US5470833A, “Endothelin antagonistic peptide derivatives” (Banyu Pharmaceutical Co., Ltd., priority 1990, dated 1995).
Numbered stars: 1 amine (or outer) side, 2 acyl side, 3 side chain; on linkers, the order of the positions; unused ones are H or OH. Square brackets hold non-standard residues; d marks the D form. Peptide text beside a SMILES is read from it. * marks the point of attachment. d(β3hA) = C[C@@H](N)CC(=O)O; PhAc = O=C(Cc1ccccc1)*; Boc = CC(C)(C)OC(=O)*; CO = O=C([*:1])[*:2]; NHBn = c1ccc(CN*)cc1; Piv = CC(C)(C)C(=O)*; NHPh = c1ccc(N*)cc1; Dha = C=C(N)C(=O)O; NHtBu = CC(C)(C)N*; Bn = c1ccc(C*)cc1; βAla = NCCC(=O)O; NEt2 = CCN(CC)*; NHiPr = CC(C)N*

Biological target: T1, endothelin receptor (membrane of smooth muscle tissue of porcine aorta) (Sus scrofa, UniProt Q29010)
T1 construct: from tissue; host or cells: porcine aorta smooth muscle, membrane fraction
T1 sequence (Q29010 21-427): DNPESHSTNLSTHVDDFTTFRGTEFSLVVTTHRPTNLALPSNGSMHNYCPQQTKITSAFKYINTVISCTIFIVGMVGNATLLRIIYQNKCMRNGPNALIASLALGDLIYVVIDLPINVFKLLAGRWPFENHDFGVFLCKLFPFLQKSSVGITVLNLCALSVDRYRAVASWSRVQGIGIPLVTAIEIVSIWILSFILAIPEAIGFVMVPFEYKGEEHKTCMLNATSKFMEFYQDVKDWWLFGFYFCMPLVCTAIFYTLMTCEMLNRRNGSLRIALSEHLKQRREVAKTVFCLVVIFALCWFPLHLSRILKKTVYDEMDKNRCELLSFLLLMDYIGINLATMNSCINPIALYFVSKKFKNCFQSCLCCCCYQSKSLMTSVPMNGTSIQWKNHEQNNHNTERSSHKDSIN
Assay: Endothelin binding inhibition test (125I-endothelin-1, porcine aorta smooth muscle membrane)
Conditions: read-out: 125I-endothelin-1 binding inhibition; for inhibition at 1.1 µM: 1.1 μM test compound (no mark); for inhibition at 10 µM: 10 μM test compound (marked *)
Description: The smooth muscle tissue of porcine aorta was homogenized in a buffer solution of 10 mM MOPS, pH 7.4, at 4° C. by a polytron. To the homogenate, sucrose was added to a concentration of 20%, and the mixture was centrifuged at 1,000×g for 15 minutes, and the supernatant was further centrifuged at 10,000×g for 15 minutes. The supernatant thereof was further centrifuged at 90,000×g for 40 minutes. The membrane precipitate thereby obtained was suspended in a buffer solution of 5 mM HEPES/Tris, pH 7.4, at a concentration of 25 mg/ml.
Then, 16 μl of this membrane suspension was added to 340 μl of 50 mM Tris/HCl buffer, pH 7.4, containing 10 μM calcium chloride, 10 μM magnesium chloride, 0.1 mM PMSF, 1 μM pepstatin A, 2 μM leupeptin, 1 mM 1,10-phenanthroline and 0.1% bovine serum albumin. To this suspension, 4 μl of (A) endothelin-1 (for nonspecific binding; 0.2 μM as the final concentration), (B) buffer solution A (for total control binding), or (C) a test compound (1.1 μM or 10 μM as the final concentration),was added. Further, to each suspension, 40 μl of ^125 I-endothelin-1 (12000-18000 cpm) was added. These mixtures were incubated at 25° C. for 4 hours, then subjected to filtration on a glass filter GF/C and then washed with 5 mM HEPES/Tris, pH 7.4, containing 0.3% bovine serum albumin. Then, the radioactivity trapped by the glass filter was measured, and the ^125 I-endothelin-1 binding inhibition D (%) at 1.1 μM or 10 μM of the test compound was determined by the following equation. [formula] Each test was performed in triplicate.
The test compounds are indicated by Compound Nos.

Row | Structure (SMILES) | inhibition at 1.1 µM [%] | inhibition at 10 µM [%]
1 | CC(C)C[C@H](NC(=O)OC(C)(C)C)C(=O)N[C@H](Cc1c[nH]c2ccccc12)C(=O)N[C@@H](C(=O)O)c1cccs1 [Compound 42] | 56 | 
2 | CC(C)C[C@H](NC(=O)OC(C)(C)C)C(=O)N[C@H](Cc1c[nH]c2ccccc12)C(=O)N[C@@H](C(=O)O)C(C)C [Compound 43] (Boc-Leu-[dW]-[dV]-OH) |  | 36
3 | CC(C)C[C@H](NC(=O)OC(C)(C)C)C(=O)N[C@H](Cc1c[nH]c2ccccc12)C(=O)N[C@H](CC(=O)O)C(=O)Nc1ccccc1 [Compound 44] (Boc-Leu-[dW]-[dD]-NHPh) | 30 | 
4 | CC(C)C[C@H](NC(=O)OC(C)(C)C)C(=O)N[C@H](Cc1c[nH]c2ccccc12)C(=O)N[C@@H](CC(=O)O)C(=O)Nc1ccccc1 [Compound 45] (Boc-Leu-[dW]-Asp-NHPh) |  | 39
5 | COC(=O)[C@@H](Cc1c[nH]cn1)NC(=O)[C@@H](Cc1c[nH]c2ccccc12)NC(=O)[C@H](CC(C)C)NC(=O)N1CCCCCC1 [Compound 47] | 75 | 
6 | CC(C)C[C@H](NC(=O)N1CCCCCC1)C(=O)N[C@H](Cc1c[nH]c2ccccc12)C(=O)N[C@H](Cc1c[nH]cn1)C(=O)O [Compound 48] | 82 | 
7 | COC(=O)[C@@H](Cc1c[nH]c2ccccc12)NC(=O)[C@@H](Cc1c[nH]c2ccccc12)NC(=O)[C@H](CC(C)C)NC(=O)N1CCCCCC1 [Compound 49] | 85 | 
8 | COC(=O)C[C@@H](C)NC(=O)[C@@H](Cc1c[nH]c2ccccc12)NC(=O)[C@H](CC(C)C)NC(=O)N1CCCCCC1 [Compound 51] | 68 | 
9 | CC(C)C[C@H](NC(=O)N1CCCCCC1)C(=O)N[C@H](Cc1c[nH]c2ccccc12)C(=O)N[C@H](C)CC(=O)O [Compound 52] | 84 | 
10 | CC(C)C[C@H](NC(=O)N1CCCCCC1)C(=O)N[C@H](Cc1c[nH]c2ccccc12)C(=O)NCCS(=O)(=O)O [Compound 53] | 86 | 
11 | CC[C@H](C)[C@H](NC(=O)OC(C)(C)C)C(=O)N[C@H](Cc1c[nH]c2ccccc12)C(=O)NCCC(=O)O [Compound 54] (Boc-Ile-[dW]-[βAla]-OH) | 39 | 
12 | CC(C)C[C@H](NC(=O)c1cccs1)C(=O)N[C@H](Cc1c[nH]c2ccccc12)C(=O)NCCC(=O)O [Compound 55] | 54 | 
13 | COC(=O)C(C(=O)N[C@@H](CC(C)C)C(=O)N[C@H](Cc1c[nH]c2ccccc12)C(=O)NCCC(=O)O)=C1SC=CS1 [Compound 66] | 77 | 
14 | CC(C)C[C@H](NC(=O)C=C1SC=CS1)C(=O)N[C@H](Cc1c[nH]c2ccccc12)C(=O)NCCC(=O)O [Compound 67] | 63 | 
15 | CC(C)C[C@H](NC(=O)CC(C)(C)C)C(=O)N[C@H](Cc1c[nH]c2ccccc12)C(=O)NCCC(=O)O [Compound 68] |  | 58
16 | CC(C)C[C@H](NC(=O)C(C)(C)C)C(=O)N[C@H](Cc1c[nH]c2ccccc12)C(=O)NCCC(=O)O [Compound 69] (Piv-Leu-[dW]-[βAla]-OH) |  | 71
17 | CC(C)C[C@H](NC(=O)Cc1ccccc1)C(=O)N[C@H](Cc1c[nH]c2ccccc12)C(=O)NCCC(=O)O [Compound 70] (PhAc-Leu-[dW]-[βAla]-OH) | 32 | 
18 | CC(C)C[C@H](NC(=O)OC(C)C)C(=O)N[C@H](Cc1c[nH]c2ccccc12)C(=O)NCCC(=O)O [Compound 71] | 29 | 
19 | CC(C)C[C@H](NC(=O)N(C)C)C(=O)N[C@H](Cc1c[nH]c2ccccc12)C(=O)NCCC(=O)O [Compound 73] ({NMe2-CO}-Leu-[dW]-[βAla]-OH) |  | 61
20 | CC(C)C[C@H](NC(=O)N1C(C)(C)CCCC1(C)C)C(=O)N[C@H](Cc1c[nH]c2ccccc12)C(=O)NCCC(=O)O [Compound 74] | 70 | 
21 | CC(C)C[C@H](NC(=O)N(C)c1ccccc1)C(=O)N[C@H](Cc1c[nH]c2ccccc12)C(=O)NCCC(=O)O [Compound 76] | 52 | 
22 | CCN(CC)C(=O)N[C@@H](CC(C)C)C(=O)N[C@H](Cc1c[nH]c2ccccc12)C(=O)NCCC(=O)O [Compound 77] ({NEt2-CO}-Leu-[dW]-[βAla]-OH) | 47 | 

Row | Structure (SMILES) | inhibition at 1.1 µM [%] | inhibition at 10 µM [%]
23 | CC(C)C[C@H](NC(=O)NC(C)(C)C)C(=O)N[C@H](Cc1c[nH]c2ccccc12)C(=O)N[C@H](C)CC(=O)O [Compound 80] ({NHtBu-CO}-Leu-[dW]-[d(β3hA)]-OH) | 73 | 
24 | CC(C)C[C@H](NC(=O)NC(C)(C)C)C(=O)N[C@H](Cc1c[nH]c2ccccc12)C(=O)N[C@H](Cc1c[nH]c2ccccc12)C(=O)O [Compound 81] ({NHtBu-CO}-Leu-[dW]-[dW]-OH) | 84 | 
25 | CC(C)C[C@H](NC(=O)NC(C)(C)C)C(=O)N[C@H](Cc1c[nH]c2ccccc12)C(=O)N[C@H](Cc1c[nH]cn1)C(=O)O [Compound 82] ({NHtBu-CO}-Leu-[dW]-[dH]-OH) | 76 | 
26 | CC(C)C[C@H](NC(=O)Nc1ccccc1)C(=O)N[C@H](Cc1c[nH]c2ccccc12)C(=O)NCCC(=O)O [Compound 84] ({NHPh-CO}-Leu-[dW]-[βAla]-OH) | 70 | 
27 | CC(C)C[C@H](NC(=O)NC(C)(C)C)C(=O)N[C@H](Cc1c[nH]c2ccccc12)C(=O)NCCC(=O)O [Compound 85] ({NHtBu-CO}-Leu-[dW]-[βAla]-OH) | 77 | 
28 | CC(C)C[C@H](NC(=O)NC(C)C)C(=O)N[C@H](Cc1c[nH]c2ccccc12)C(=O)NCC(=O)O [Compound 89] ({NHiPr-CO}-Leu-[dW]-Gly-OH) |  | 55
29 | CC(C)C[C@H](NC(=O)Nc1ccccc1)C(=O)N[C@H](Cc1c[nH]c2ccccc12)C(=O)NCC(=O)O [Compound 90] ({NHPh-CO}-Leu-[dW]-Gly-OH) | 46 | 
30 | CC(C)C[C@H](NC(=S)Nc1ccccc1)C(=O)N[C@H](Cc1c[nH]c2ccccc12)C(=O)NCC(=O)O [Compound 91] |  | 51
31 | CCOC(=O)CCNC(=O)[C@@H](Cc1c[nH]c2ccccc12)NC(=O)[C@H](CC(C)C)NC(=O)N1CCCCCC1 [Compound 92] | 40 | 
32 | CC(C)C[C@H](NC(=O)NC12CC3CC(CC(C3)C1)C2)C(=O)N[C@H](Cc1c[nH]c2ccccc12)C(=O)NCCC(=O)O [Compound 113] | 69 | 
33 | CC(C)C[C@H](NC(=O)NCc1ccccc1)C(=O)N[C@H](Cc1c[nH]c2ccccc12)C(=O)NCCC(=O)O [Compound 115] ({NHBn-CO}-Leu-[dW]-[βAla]-OH) | 33 | 
34 | CC(C)C[C@H](NC(=O)N(C(C)C)C(C)C)C(=O)N[C@H](Cc1c[nH]c2ccccc12)C(=O)NCCC(=O)O [Compound 119] | 81 | 
35 | CC(C)C[C@H](NC(=O)N1CCCCCC1)C(=O)N[C@H](Cc1cn(C=O)c2ccccc12)C(=O)N[C@H](C)CC(=O)O [Compound 132] | 85 | 
36 | C=C(NC(=O)[C@@H](Cc1c[nH]c2ccccc12)NC(=O)[C@H](CC(C)C)NC(=O)OC(C)(C)C)C(=O)O [Compound 133] (Boc-Leu-[dW]-[Dha]-OH) | 41 | 
37 | CNC(=O)CCNC(=O)[C@@H](Cc1c[nH]c2ccccc12)NC(=O)[C@H](CC(C)C)NC(=O)N1CCCCCC1 [Compound 134] | 32 | 
38 | CC(C)C[C@H](NC(=O)N1CCCCCC1)C(=O)N[C@H](Cc1c[nH]c2ccccc12)C(=O)NCCC(N)=O [Compound 135] | 39 | 
39 | CC(C)C[C@H](NC(=O)N1CCCCCC1)C(=O)N[C@H](Cc1c[nH]c2ccccc12)C(=O)NCCC(=O)N(C)C [Compound 136] | 32 | 
40 | CC(C)C[C@H](NC(=O)OC(C)(C)C)C(=O)N[C@H](Cc1c[nH]c2ccccc12)C(=O)N[C@H](Cc1ccc(OCc2ccccc2)cc1)C(=O)O [Compound 137] (Boc-Leu-[dW]-[dY](Bn)-OH) | 46 | 
41 | CC(C)C[C@H](NC(=O)OC(C)(C)C)C(=O)N[C@H](Cc1c[nH]c2ccccc12)C(=O)N[C@H](Cc1ccc(O)cc1)C(=O)O [Compound 138] (Boc-Leu-[dW]-[dY]-OH) | 72 | 
42 | CC(C)C[C@H](NC(=O)N1CCCCCC1)C(=O)N[C@H](CC1C(=O)Nc2ccccc21)C(=O)N[C@H](C)CC(=O)O (some centres unmarked) [Compound 139] | 66 | 
43 | COC(CNC(=O)[C@@H](Cc1c[nH]c2ccccc12)NC(=O)[C@H](CC(C)C)NC(=O)OC(C)(C)C)C(=O)O (some centres unmarked) [Compound 146] |  | 70
44 | CC(C)C[C@H](NC(=O)OC(C)(C)C)C(=O)N[C@H](Cc1c[nH]c2ccccc12)C(=O)NN(CC(=O)O)CC(=O)O [Compound 147] |  | 57
